Experiment [1] has as its target Prothrombin (Homo sapiens, UniProt P00734). Description: Counterscreens for Selectivity: Thrombin. In a 96-well white opaque plate, 80 μl of assay buffer was added to each well. Test compounds were added, and serially diluted as above, to generate a concentration range of approximately 1-100 μM. Human alpha-thrombin (Enzyme Research Labs) was diluted in assay buffer to a final concentration of 12.5 nM. 80 μl of this enzyme solution was added to the assay wells. The enzyme/compound mixtures were incubated for 10 minutes at room temperature. Fluorogenic substrate (Boc-Val-Pro-Arg-7-amido-4-methylcoumarin; Sigma) was added to assay wells at a final concentration of 20 μM. The assay plate was spun for 1 minute at 1500 g and then read at 37° C. in a SpectraMax M2 plate reader (λex=380 nm and λem=460 nm). Activity was quantified as the rate of change in fluorescence, which corresponds to the rate of substrate cleavage. IC50 values were determined as the concentration of inhibitor that produced 50% of the rate of change of control wells without any inhibitor. For compounds with activity <1 μM, the assay was repeated with a lower concentration range, typically from 10-1000 nM. In general terms: The purpose of a counterscreen is to sort out artefacts and off-target activity.

Experiment [2] concerns the target T1, Coagulation factor XII (Homo sapiens, UniProt P00748).
T1 sequence (P00748 whole entry): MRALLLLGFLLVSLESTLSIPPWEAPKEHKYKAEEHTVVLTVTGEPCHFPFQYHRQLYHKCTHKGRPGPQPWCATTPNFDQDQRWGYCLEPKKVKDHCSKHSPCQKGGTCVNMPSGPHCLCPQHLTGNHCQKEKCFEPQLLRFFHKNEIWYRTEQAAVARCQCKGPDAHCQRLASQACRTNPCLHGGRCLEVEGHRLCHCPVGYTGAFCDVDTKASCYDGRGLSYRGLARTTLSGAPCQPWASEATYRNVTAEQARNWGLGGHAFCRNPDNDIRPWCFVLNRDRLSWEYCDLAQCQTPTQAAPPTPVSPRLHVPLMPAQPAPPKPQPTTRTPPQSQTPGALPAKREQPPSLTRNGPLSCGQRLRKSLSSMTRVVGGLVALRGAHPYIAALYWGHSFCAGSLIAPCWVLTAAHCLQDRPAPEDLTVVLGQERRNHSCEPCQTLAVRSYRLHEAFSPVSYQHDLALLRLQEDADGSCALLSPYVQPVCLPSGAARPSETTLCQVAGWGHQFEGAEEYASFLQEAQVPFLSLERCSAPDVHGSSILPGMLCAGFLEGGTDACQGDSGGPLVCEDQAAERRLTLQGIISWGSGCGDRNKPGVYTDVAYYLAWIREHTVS
Description: Factor XIIa (FXIIa) Inhibitory Activity: In a 96-well clear bottom plate, 80 μl of assay buffer was added to each well. Assay buffer consists of 0.5× Hank's Balanced Salt Solution (Invitrogen), buffered with 25 mM HEPES pH 7.4 (Invitrogen) and 0.5× Tris-buffered saline with Tween-20 0.05% (Santa Cruz Biotechnology). Test compounds were first dissolved in DMSO (Sigma) and then 4 μl were added to test wells containing assay buffer. Serial dilutions using an automated multi-channel pipette were used to generate a concentration range of approximately 1-100 μM. Human FXIIa (Enzyme Research Labs) was diluted in assay buffer to a final concentration of 12.5 nM. 80 μl of this enzyme solution was added to the assay wells. The enzyme/compound mixtures were incubated for 10 minutes at room temperature. Chromogenic substrate (Pefachrome XIIa; Enzyme Research Labs) was added to assay wells at a final concentration of 400 μM. The assay plate was spun for 1 minute at 1500 g and then read at 37° C. in a SpectraMax M2 plate reader (λ=405 nm). Activity was quantified as the rate of change in absorbance, which corresponds to the rate of substrate cleavage. IC50 values were determined as the concentration of inhibitor that produced 50% of the rate of change of control wells without any inhibitor. For compounds with activity <1 μM, the assay was repeated with a lower concentration range, typically from 10-1000 nM.

The term IC50 denotes the concentration needed to halve the response being measured. As to `CN(C)S(=O)(=O)N1CCc2c(nn(C(=O)C3CCNc4ccccc43)c2N)C1` (stereo not given), the IC50 was over 75 µM in experiment [1] and 0.25 µM in experiment [2]. As for `Cc1cc2c(C(=O)n3nc4c(c3N)CCNC4)cccc2[nH]1`, the IC50 was over 150 µM in experiment [1] and 0.15 µM in experiment [2].

Regarding `CC(C)N1CCc2c(N)nn(C(=O)C3CCNc4ccc(F)cc43)c2C1` (stereo not given), the IC50 in experiment [2] stood at 60 µM.

Values taken from ChEMBL document CHEMBL5729087, “Pyranopyrazole and pyrazolopyridine immunomodulators for treatment of autoimmune diseases” (2022).
